Results on one substance are retold here after patent publication US20120034608A1, “MICRORNA AS A BIOMARKER OF PANCREATIC ISLET BETA-CELL ENGAGEMENT” (Merck Sharp & Dohme Corp., priority 2009, published 2012).

In experiment [1] the test system is INS-1 832/13 cells. Briefly: TAQMAN analysis of miRNA expression in INS-1 832/13 cells. The format is cell-based, rat. The settings on record: 24 hours post-GLP-1 treatment. The method, then:
(§1) INS-1 832/3 and 832/13 cells were maintained in RPMI 1640 with 10% FBS and 11 mM glucose. For GLP-1 treatment, GLP-1 (7-37) amide (ABCHEM) was added in the media in the presence of 16 mM glucose for 24 hours. Total RNA was extracted with TRIZOL as in Example 1. Rat islet isolation and treatment was as follows. Pancreatic islets of Langerhans were isolated from the pancreas of normal Sprague-Dawley rats (Charles River, Ind.) by collagenase digestion and discontinuous Ficoll gradient separation (15). Islets were cultured for 2 hours in RPMI 1640 medium with 11 mM glucose for recovery from the isolation process. Then 100-200 islets were treated with 50 nM GLP-1 in the media with 11 mM glucose for 24 hours. RNA was extracted with TRIZOL as in Example 1 for quantification of microRNA species.
Fluorogenic TAQMAN detector probes specific for miR-132 (Cat# TM457), miR-212 (Cat# TM515), miR-375 (Cat#TM564), and miR-217 (Cat#1133) were purchased from Applied Biosystems (Foster City, Calif.). […]
Relative miRNA levels for the miRNAs of interest were determined by real-time reverse transcription reaction using the ABI PRISM 7900 Sequence Detection System from Applied Biosystems (Foster City, Calif.) according to the manufacturer's protocol. […] Data were collected and analyzed with SDS v.2.2.2 software (Applied Biosystems). […]
In general terms: In qPCR the cycle at which signal appears reflects the starting amount.

For experiment [2], the system named is rat pancreatic islets. Briefly: miRNA expression in isolated rat islets (TAQMAN). In kind it is cell-based. The settings on record: 50 nM GLP-1, 11 mM glucose, 24 hours. As to the method: as §1
To verify that GLP-1 mediated miR-212 and miR-132 expression changes are of biological relevance, we analyzed their expression in freshly isolated rat islets treated with GLP-1. Pancreatic islets of Langerhans were isolated from the pancreas of normal Sprague-Dawley rats (Charles River, Ind.) by collagenase digestion and discontinuous Ficoll gradient separation. Islets were cultured for two hours in RPMI 1640 medium with 11 mM glucose for recovery from the isolation process. Then 100 to 200 islets were treated with 50 nM GLP-1 in the media with 11 mM glucose for 24 hours. RNA was extracted with TRIZOL reagent/ethanol precipitation followed by quantification of miRNA species. […] The regulation of miR-132 and miR-212 expression by GLP-1 was confirmed in rat pancreatic islets.

The subject of experiment [3] is INS-1 832/3 cells. Briefly: glucose dependent insulin secretion (GDIS) assay in INS-1 832/3 cells. The format is cell-based, rat. The conditions noted are these: 16 mM glucose, two-hour incubation in KRB. The source says:
We overexpressed the precursors of miR-132 and miR-212 to evaluate their possible contribution to β-cell function. MicroRNA miR-375 was included as a control as it been reported to have an inhibitory effect on GDIS (Poy et al., Nature 432: 226-230 (2004)). Chemically modified Pre-miR™ miRNA precursor molecules and Anti-miR™ miRNA inhibitors were purchased from Ambion (Foster City, Calif.). miRCURY LNA™ microRNA knockdown oligonucleotides were purchased from Exiqon (Woburn, Mass.). The oligonucleotide molecules were delivered to the cells by the Nucleofector Device (Amaxa, Gaithersburg, Md.). In brief, INS-1 cells were trypsinized, centrifuged, and resuspended in 100 μl Nucleofector solution V. Then 100-500 pmole RNA oligonucleotides were transfected to 3-million cells at the concentration of 1-5 μM with the Amaxa Nucleofector Device. Scramble controls from the vendors were used with the same transfection method. After electroporation, the cells were transferred to regular culture medium and then split into replicates in 96-well plates. Insulin secretion assay or LANCE cAMP assay were performed 48 hours post electroporation.
INS-1 cell glucose dependent insulin secretion (GDIS) assay was performed as follows. The GDIS assay was performed with cells grown to near confluency in 96-well plates. Prior to the assay, cells were washed once with PBS and pre-incubated for two hours in freshly prepared Krebs-Ringer Bicarbonate (KRB) medium without glucose. The medium were then replaced with KRB with 2, 8 or 16 mM glucose or along with 10 nM GLP-1. The cells were incubated for another two hours in a CO2 incubator. The media was then removed at the end of incubation, and assayed for insulin levels by Ultra-sensitive Rat Insulin ELISA kit (ALPCO, Salem, N.H.) or insulin immunoassay by Gyrolab workstation (GYROS AB, Uppsala, Sweden). Intracellular insulin was extracted by acid ethanol method for measuring intracellular insulin content. Total protein was measured by Pierce 660 nm Protein Assay from Pierce Biotechnology, Inc. (Rockford, Ill.).

Turning to GLP-1 (7-37) amide, in experiment [1], the “increase of miR-132 expression in response to GLP-1” value is on record as “not observed” and the “increase of miR-212 expression in response to GLP-1” value is listed as “not observed”. In experiment [2], the “miR-132 expression level increased” value turned out to be 2 fold; the “miR-212 expression level increased” value is 2 fold; the “regulation of miR-375 and miR-217 expression” value is “Neither miR-375 nor miR-217 was significantly regulated”. In addition, the “increase of insulin secretion upon treatment with GLP-1” value in experiment [3] is listed as “greater than 300%”.
